The record followed here is patent US20250134938A1 (priority 2023, published 2025).

Several values for one entry are separate records, joined by “and”; a condition that tells them apart may be missing. Identical values can stand only once.

The test system of data set [1] is RAW 264.7 cells. Briefly: NO production by RAW 264.7 macrophages (Griess reagent). Format: cell-based, mouse. Conditions: MOI 100, 24 hours, LPS 1 μg/mL as 100%. How it is done:
RAW 264.7 cells (KCLB40071), which are mouse macrophages, were purchased from the Korean Cell Line Bank. They were inoculated to DMEM (high-glucose Dulbecco's modified Eagle's medium; GIBCO, Grand Island, NY, USA) containing 10% (v/v) fetal bovine serum (FBS, GIBCO) and 1% (v/v) penicillin-streptomycin (P/S, GIBCO), cultured at 37° C. in a 5% CO2 incubator (Thermo Fisher Scientific, Waltham, MA, USA), and then detached using a cell scraper (SPL, Pocheon, Korea).
Cell precipitates were harvested by centrifugation at 10,000 rpm for 5 minutes at 4° C. for 5 times. Afterward, they were washed three times with DPBS (Dulbecco's phosphate buffered saline; Welgene, Gyeongsan, Korea). […]
NO production by RAW 264.7 macrophages was measured using a Griess reagent. […] 100 µL of the culture was added to a 96-well plate and, after adding 100 μL of a Griess reagent A and a Griess reagent B of equal amounts, reaction was conducted for 15 minutes in the dark, and absorbance was measured at 540 nm with a microplate reader. A standard curve for NO production versus absorbance was constructed using a sample of 250 µM NaNO2 diluted 2-fold with DMEM to […], and NO concentration was calculated from the measured absorbance value.

A short description of data set [2]: Number of live bacteria and pH of coconut fermented milk. The following applies: coconut milk fermented at 37° C. for 16 hours; listed as LGG. How it is done:
Then, cells were harvested by centrifuging the Lactobacillus culture (13,000 rpm, 1 minute, 4° C.). The cell precipitate was washed 3 times with 0.85% (w/v) NaCl (sterile physiological saline) and then suspended in 1 mL of sterile physiological saline (The concentration of the suspension was 1×10^8 CFU/mL). (2) 1% (v/v) of the suspended strain was inoculated to 3 mL of coconut milk with a solid content of 8 wt %, and coconut fermented milk was prepared by fermenting at 37° C. for 16 hours. After measuring the pH of the coconut fermented milk prepared in Example 11-1, it was decimally diluted with sterile physiological saline and the number of live bacteria was counted on a […] lactic acid bacteria count plate (3M Company, St. Paul, MN, USA) after culturing for 1 to 2 days.

Data set [3] can be described thus: Pancreatic juice resistance in artificial pancreatic juice. Format: physicochemical. The following applies: 0.5% pancreatin, listed as LGG. As to the method: Artificial pancreatic juice was prepared by adding 5% of a 10% pancreatin solution (0.85% NaCl, pH 8.0) filtered through a 0.22-μm membrane to sterilized MRS broth to a final pancreatin concentration of 0.5%. A Lactobacillus seed culture obtained by incubating at 37° C. for 20 hours after inoculation to MRS broth was added to 5 mL of the artificial pancreatic juice to 1% (v/v) and incubated at 37° C. […] Pancreatic juice resistance was calculated using the following equation. A sample at 0 hour of incubation was used as a control group. [formula]

The nature of data set [4]: Bile resistance in artificial bile. The following applies: 0.3% oxgall, 37° C., 24 hours. Format: physicochemical. How it is done:
Artificial bile was prepared by adding 3% of a 10% Bacto oxgall (Becton, Dickinson and Company) solution filtered through a 0.22-μm membrane to sterilized MRS broth to give a final oxgall concentration of 0.3%. […] 1 mL of the sample was taken, diluted decimally with 9 mL of saline, smeared on LAB Petrifilm, and incubated at 37° C. for 1-2 days to determine the number of live bacteria (Table 13). Bile resistance was calculated using the following equation. A sample incubated in MRS broth without addition of oxgall was used as a control group.

A short description of data set [5]: DPPH radical scavenging assay. Format: biochemical. The following applies: culture supernatant; relative to 2 mM ascorbic acid. How it is done:
Louis, MO, USA) radical scavenging assay. […] 0.1 mM DPPH diluted in methanol was used in the experiment. […] The reaction mixture was centrifuged at 13,000 rpm for 1 minute. 200 μL of the supernatant was dispensed into a 96-well plate, and absorbance was measured at 517 nm using a microplate reader (Epoch microplate reader, Biotek Instruments, Inc., Winooski, VT, USA). DPPH radical scavenging activity was calculated using the following equation and expressed as a relative value to the DPPH radical scavenging activity of the positive control group, 2 mM ascorbic acid. DPPH Radical Scavenging Activity (%)=(1-(Absorbance of Sample/Absorbance of Control Group))×100

Data set [6] can be described thus: Acid resistance in artificial gastric fluid. Format: physicochemical. Conditions: pH 2.5, 2 h. As to the method: Artificial gastric fluid was prepared by adjusting the pH of 100 mM glycine-HCl buffer to 2.5. After inoculating Lactobacillus seed culture incubated at 37° C. for 20 hours to 1% (v/v) in 4 mL of MRS broth, the culture was incubated at 37° C. for 16 hours. The culture was centrifuged at 13000 rpm for 1 minute and the obtained cell precipitate was washed twice with 0.88% (w/v) NaCl (sterile physiological saline). The washed pellet was resuspended in 4 mL of the artificial gastric fluid and incubated at 37° C. After 2 hours of incubation, 1 mL of the sample was taken and centrifuged at 13000 rpm for 1 minute to obtain a cell pellet, which was washed three times with sterile physiological saline and resuspended in 1 mL of sterile physiological saline. After decimally diluting with 9 mL saline, followed by smearing on LAB Petrifilm, the sample was incubated at 37° C. for 1-2 days and the live bacteria were counted (Table 12). Acid resistance was calculated using the following equation. The sample at 0 hour of incubation was used as a control group. [formula]

Data set [7] relates to Caco-2 cells. Briefly: Ability of intestinal adherence. Format: cell-based, human. Conditions: MOI 200, 2 hours, listed as LGG. How it is done:
Caco-2 cells (human colorectal adenocarcinoma cells, HTB-37™), which are enterocyte-like cells, purchased from the ATCC were cultured in DMEM medium supplemented with 10% (v/v) FBS (Cornig) and 1% (v/v) P/S at 37° C. under 5% CO2 in an incubator (Thermo Fisher Scientific, Waltham, MA, USA). 0.25% trypsin-EDTA (GIBCO) was used to detach the cells from a culture flask.
500 μL of the Caco-2 cells were seeded in a 24-well plate at a density of 5×10^5 cells/well and cultured for 3 days at 37° C. and 5% CO2. The 24-well plate in which the Caco-2 cells were cultured was washed twice with 500 μL of DMEM medium supplemented with 10% FBS. After treating with Lactobacilli at a concentration of MOI 200, the cells were incubated at 37° C. and 5% CO2 for 2 hours. After the incubation, each well was washed four times with 500 μL of DPBS to remove the unattached strain. 200 μL of 0.25% trypsin-EDTA was dispensed into each well and incubated for 5 minutes at 37° C. and 5% CO2. The detached Caco-2 cells and strain were collected in a 1.5-mL tube together with […] of DPBS and centrifuged at 13,000 rpm for 1 minute to harvest a cell pellet, which was washed twice with 1 mL of DPBS. […] After decimal dilution, followed by smearing on Petrifilm and incubation at 37° C. for 24 hours, the number of live bacteria was determined. The ability of intestinal adhesion was calculated by the following equation.

Lactobacillus rhamnosus GG: the “NO production (% of positive control group)” value is on record as 18.5 ± 3.2% in data set [1] and 18.47% in data set [1] (listed as LGG). Also, the pH in data set [2] is 3.57 and 3.57 ± 0.06. Besides, the “live bacteria 0 h (CFU/mL)” value in data set [3] (0 h (control)) was 1.30 × 10^9 CFU/mL and 1.73 × 10^9 CFU/mL and 1.12 × 10^9 CFU/mL. Besides, the “live bacteria 2 h (CFU/mL)” value in data set [3] (37° C., 2 h) is 3.14 × 10^9 CFU/mL and 3.87 × 10^9 CFU/mL and 2.74 × 10^9 CFU/mL. The “Pancreatic juice resistance (%) Average” value in data set [3] (average) was 104.1% and 104.1 ± 0.3%. Besides, the “Pancreatic juice resistance (%)” value in data set [3] (single replicate) was 104.2% and 103.8% and 104.3%. In data set [4], the “Bile resistance (%)” value turned out to be 63.6 ± 9.3%. Besides, the “DPPH radical scavenging activity (%)” value in data set [5] stood at 97.2%. Further, the “Acid resistance (%) Average” value in data set [6] stood at 83.3%; in data set [6] (listed as LGG), 83.3 ± 2.3%. Moreover, the “Acid resistance (%)” value in data set [6] (single replicate, listed as LGG) was 81.2% and 85.8% and 83.0%. Further, the “Ability of intestinal adherence (%)” value in data set [7] was 75.5% and 75.5 ± 9.3%.
